In PubChem BioAssay AID1944 (The Scripps Research Institute Molecular Screening Center, 2009):
Active and inactive are the calls of the source. How the calls were made is not given here.

Molecular target: Replicase polyprotein 1ab (Severe acute respiratory syndrome coronavirus) (UniProt P0C6X7)
Test: SARS-CoV PLpro inhibitor potency, dose response, counter-screen for SARS-CoV 3CLpro inhibitor project, biochemical, luminescence (AID 1944)
Conditions: SARS-CoV PLpro enzymatic assay

O=C1C(=O)N(CC2COc3ccccc3O2)c2ccccc21 (stereo not given)
IC50: > 59.6 µM (inactive)

O=C(/C=C/c1ccc(Cl)c([N+](=O)[O-])c1)NCc1cccnc1
IC50: > 59.6 µM (inactive)

O=C(Cc1ccc(Cl)c(Cl)c1)Nc1cccnc1
IC50: inactive

NC(=O)CCn1c(C(=O)c2cc(Cl)c(N)c(Cl)c2)c2ccccc2[n+]1[O-]
IC50: > 59.6 µM (inactive)

CCc1cc(=O)oc2cc(OC(=O)c3ccco3)ccc12
IC50: > 59.6 µM (inactive)

O=Cc1cn(Cc2ccccc2)nc1-c1cccnc1
IC50: > 59.6 µM (inactive)

O=C(CSc1ccccn1)Nc1nonc1[N+](=O)[O-]
IC50: > 59.6 µM (inactive)

Cc1cc(=O)oc2cc(OC(=O)c3ccco3)ccc12
IC50: > 59.6 µM (inactive)

Cc1cccc(N2CCN(C(=O)c3cc(=O)[nH]c4ccccc34)CC2)c1C
IC50: > 59.6 µM (inactive)

COc1cc2c(cc1OC)C(c1cc(Br)ccc1F)N(C(=O)CCl)CC2 (stereo not given)
IC50: > 59.6 µM (inactive)

Cc1ccc(C(=O)c2c3ccccc3[n+]([O-])n2CCC(N)=O)cc1
IC50: 8.04 µM

Cc1ccc(-c2cc(NC(=O)c3ccccc3[N+](=O)[O-])n[nH]2)cc1
IC50: inactive

CC(=O)c1c(OC(=O)c2ccco2)c2ccccc2n1C
IC50: > 59.6 µM (inactive)

CC(C)C[C@H](NC(=O)c1nc[nH]c1C(=O)NCc1ccc(CNC(=O)OC(C)(C)C)cc1)C(=O)OC(C)(C)C
IC50: > 59.6 µM (inactive)

O=C(O)COc1ccc(Br)cc1C(c1c(C(=O)O)[nH]c2ccccc12)c1c(C(=O)O)[nH]c2ccccc12
IC50: inactive

Cc1cccc2c1N(CCOc1ccccc1)C(=O)C2=O
IC50: > 59.6 µM (inactive)

CC(=O)NC1C(=O)N(CCN2CCOCC2)c2ccc(F)cc21 (stereo not given)
IC50: > 59.6 µM (inactive)

O=C(Nc1ccc(OCC(F)(F)C(F)F)c(C(F)(F)F)c1)c1ccccc1O
IC50: 0.596 µM

CC(=O)n1cc(N(C(=O)CCl)c2ccc([N+](=O)[O-])cc2)c2ccccc21
IC50: > 59.6 µM (inactive)

Cc1ccc(C2CC(c3cccs3)=NN2C(=O)CCl)cc1 (stereo not given)
IC50: inactive

Cc1cc(C)c(C)c(S(=O)(=O)N2CCN(C(=O)c3cc(=O)[nH]c4ccccc34)CC2)c1C
IC50: > 59.6 µM (inactive)

Cn1nc(-c2ccc(Cl)cc2)nc2c(=O)n(C)c(=O)nc1-2
IC50: 0.111 µM

O=C(Nc1ccccc1)NN(C(=O)CCl)c1ccccc1
IC50: > 59.6 µM (inactive)

COc1ccccc1OCCNC(=O)c1cc(=O)[nH]c2ccccc12
IC50: > 59.6 µM (inactive)

CCC(C)(C)NC(=O)C(c1ccc(O)cc1)N(C(=O)Cn1nnc2ccccc21)c1ccc(NC(C)=O)cc1 (stereo not given)
IC50: > 59.6 µM (inactive)

CC(C)c1ccc(N(C(=O)c2csnn2)C(C(=O)NC2CCCC2)c2cccnc2)cc1 (stereo not given)
IC50: > 59.6 µM (inactive)

Cc1cc(C)c(N(C(=O)Cn2nnc3ccccc32)C(C(=O)NC(C)(C)C)c2ccsc2)c(C)c1 (stereo not given)
IC50: > 59.6 µM (inactive)

Cc1cc(C(=O)CCl)c(C)n1-c1cccc([N+](=O)[O-])c1
IC50: > 59.6 µM (inactive)

CCC(C)c1ccc(N(C(=O)c2ccco2)C(C(=O)NC2CCCC2)c2cccnc2)cc1 (stereo not given)
IC50: inactive

CCc1ccc2c(c1)C(NC(C)=O)C(=O)N2CCN1CCOCC1 (stereo not given)
IC50: > 59.6 µM (inactive)

O=C(/C=C/c1ccccc1Cl)Nc1cccnc1
IC50: 0.0388 µM

COc1cccc(C(C(=O)NCC2CCCO2)N(C(=O)Cn2nnc3ccccc32)c2ccc(NC(C)=O)cc2)c1 (stereo not given)
IC50: > 59.6 µM (inactive)

COc1cccc(C(C(=O)Nc2ccc(F)cc2)N(C(=O)Cn2nnc3ccccc32)C2CC2)c1 (stereo not given)
IC50: > 59.6 µM (inactive)

COc1cccc(C(C(=O)NCc2ccco2)N(Cc2ccco2)C(=O)Cn2nnc3ccccc32)c1 (stereo not given)
IC50: > 59.6 µM (inactive)

Cc1cc(C)n(C(=O)c2ccc(C)c(Br)c2)n1
IC50: inactive

Cn1cnc2cc(NC(=O)c3ccc(Cl)cc3)ccc21
IC50: 3.28 µM

COc1ccc(C2C(O)C(c3c[nH]c4ccccc34)=NN2C(=O)CCl)cc1 (stereo not given)
IC50: > 59.6 µM (inactive)

Cc1ccc(C(=O)c2c3ccc(C(F)(F)F)cc3[n+]([O-])n2CCC(N)=O)cc1
IC50: > 59.6 µM (inactive)

COc1ccc2c(c1)C(=O)C(=O)N2CC1COc2ccccc2O1 (stereo not given)
IC50: > 59.6 µM (inactive)

COc1ccc(C2CC(c3cccs3)=NN2C(=O)CCl)cc1OC (stereo not given)
IC50: > 59.6 µM (inactive)

CC(C)c1ccc(N(C(=O)c2ccco2)C(C(=O)NC2CCCC2)c2cccnc2)cc1 (stereo not given)
IC50: > 59.6 µM (inactive)

C[C@@]12C(=O)N(c3cccc(Br)c3)C(=O)N1[C@H](c1ccc(Cl)cc1)[C@@H]1C(=O)N(C3CCCCC3)C(=O)[C@@H]12
IC50: > 59.6 µM (inactive)

CC(=O)NC1C(=O)N(CCN2CCOCC2)c2ccc(Br)cc21 (stereo not given)
IC50: > 59.6 µM (inactive)

Cc1cc(NC(=O)COn2nnc3ccc(S(C)(=O)=O)cc32)ccc1Br
IC50: > 59.6 µM (inactive)

NC(=O)CCn1c(C(=O)c2ccc(Cl)cc2)c2ccccc2[n+]1[O-]
IC50: > 59.6 µM (inactive)

O=c1[nH]c(=O)n(-c2ccccc2F)c(O)c1/C=C1\C=Nc2ccccc21
IC50: > 59.6 µM (inactive)

O=C(NCc1ccco1)C(c1ccco1)N(C(=O)Cn1nnc2ccccc21)c1ccc2c(c1)CCC2 (stereo not given)
IC50: > 59.6 µM (inactive)

O=C(/C=C/c1c(F)cccc1Cl)Nc1cccnc1
IC50: 0.0628 µM

O=C(/C=C/c1cccs1)Nc1scc(-c2ccccc2)c1C(=O)O
IC50: 0.0455 µM

NC(=O)CCn1c(C(=O)c2cccc([N+](=O)[O-])c2)c2ccccc2[n+]1[O-]
IC50: > 59.6 µM (inactive)

O=C(O)c1[nH]c2ccccc2c1C(c1cc(Br)ccc1O)c1c(C(=O)O)[nH]c2ccccc12
IC50: 9.17 µM

CC(=O)c1cc(-c2ccccc2)[nH]c1N1CCCC1
IC50: inactive

COc1ccccc1/C=C/C(=O)c1cc(Br)ccc1OC(=O)c1ccco1
IC50: inactive

Cc1nnc(SC(=O)N2c3ccccc3Sc3ccccc32)s1
IC50: > 59.6 µM (inactive)

Cc1ccc2[nH]c3c(c2c1)CN(C(=O)CN1c2ccc(F)cc2CCC1C)CC3 (stereo not given)
IC50: > 59.6 µM (inactive)

CCC(C)(C)NC(=O)C(c1cccn1C)N(C(=O)Cn1nnc2ccccc21)c1ccc(NC(C)=O)cc1 (stereo not given)
IC50: > 59.6 µM (inactive)

COc1ccc(C(C(=O)NCC2CCCO2)N(C(=O)Cn2nnc3ccccc32)c2ccc(NC(C)=O)cc2)cc1 (stereo not given)
IC50: > 59.6 µM (inactive)

CCOc1ccc2c(c1)C(=O)C(=O)N2CC1COc2ccccc2O1 (stereo not given)
IC50: > 59.6 µM (inactive)

COc1ccc2cc(C3(C)NC(=O)N(CC(=O)NCc4ccco4)C3=O)ccc2c1 (stereo not given)
IC50: > 59.6 µM (inactive)

COc1cccc(/C=N/NC(=S)Nc2cccnc2)c1
IC50: inactive
